According to patent publication US12006330B2, “Substituted macrocyclic compounds and related methods of treatment” (Alkermes, Inc., priority 2020, dated 2024):

Assays:
Assay type in all cases: in vitro ADME
MDR1 = assay: MDCK-MDR1 permeability assay; conditions: dog, MDCK-MDR1, MDCK-MDR1 cells; for efflux ratio at 2 h, 3 μM: Papp B→A divided by Papp A→B, read-out: Efflux ratio (ER); for Papp A→B at 2 h, 3 μM: test compound 3 μM, 2 hours at 37 degrees C, apical to basolateral
Method: The bidirectional permeability (Apical to Basal and Basal to Apical directions) of test compounds in MDCK-MIDR1 cells were evaluated using MDCK-MIDR1 cells seeded in Solvo PreadyPort™ MDCK 96-well plate. Once the plate was received from ReadyCell (Barcelona, Spain), it was treated as per PreadyPort™ user's manual.
For the Apical to Basolateral (A→B) permeability, 80 μL of test compound (3 μM) co-dosed with LY (Lucifer Yellow) (100 μM) in HBSS (Hank's Balanced Salt Solution) assay buffer was added to the donor side (A) while 250 μL of HBSS buffer was added to the receiver side (B). For the Basolateral to Apical (B→A) permeability, 255 μL of test compound (3 μM) in HBSS assay buffer was added to the donor side (B) while 75 μL of HBSS buffer containing LY (100 μM) was added to the receiver side (A).
The plate was placed in an incubator set at 37 degrees C. After 10 minutes of pre-warming, 5 μL aliquot was taken from donor compartment and set aside as the dosing solution. The MDCK-MDR1 incubation plate was placed back into the incubator for 2 hours of incubation at 37 degrees C. After 2 hours of incubation, 25 μL and 5 μL aliquots were removed from the receiver and donor sides, respectively. To the 5 μL aliquots taken from the donor sides (before and after a 2-hour incubation) were diluted with 20 μL of the HBSS buffer. All samples were mixed with 150 μL with acetonitrile containing internal standard (IS) and 200 μL water, and analyzed by LC-MS/MS.
The apparent permeability (Papp) was calculated using the following formula: Papp=dQ/dt×1/A×C0 where: • dQ/dt: amount of translocated material over incubation time (nmol/s) • A: area of insert (0.14 cm^2 for PreadyPort™ MDR1-96) • C0: initial concentration of product applied in apical (A→B) or basal (B→A) compartment (nmol/mL)
The efflux ratio (ER) was measured by dividing the Papp (basolateral to apical direction) by Papp (apical to basolateral direction). It is a general measure of the involvement of active processes. An ER>2 is considered positive for active transport.
Percent recovery was measured using the following equation:
[formula] where: • VR: Volume of the receiver compartment (mL) • VD: Volume of the donor compartment (mL) • CN: Concentration of dosing solution (μM) collected after 10 minutes of incubation • CR^final: Receiver concentration at the end of the incubation (μM) • CD^final: Donor concentration at the end of the incubation (μM)
The data reported in Table 3 were obtained according to the MDCK-MDR1 permeability assay described above.

[1] = Hepatocytes stability assay (human hepatocytes); conditions: both sexes, human, cryopreserved hepatocytes, cryopreserved human hepatocytes (pool of 50 mixed gender); 1 μM test compound; 1×10^6 cell/mL; 37 degrees C; read-out: CLint (μL/min/million cells)
Method: (§1) In vitro metabolic stability was assessed using cryopreserved hepatocytes from male Sprague Dawley rats and a pool of 50 mixed gender humans (BioIVT, Baltimore, MD). The incubation mixtures were prepared by mixing 250 μL of pre-warmed KHB (Krebs-Henseleit buffer) containing 2×10^6 cell/mL of hepatocytes with 250 μL of pre-warmed KHB buffer containing 2 μM of test compounds in a 48-well plate, giving a final concentration of 1 μM test compound (0.1% DMSO) and 1×10^6 cell/mL of hepatocytes. The reaction mixture was incubated at 37 degrees C. A 50 μL aliquot of incubation mixture was taken at time points (0, 15, 30, 60, 120 and 240 minutes) and transferred into a 96-well plate containing 300 μL ice-cold acetonitrile (containing 30 ng/mL of labetalol and 10 ng/mL of Naltrexone-d3 as internal standards) and immediately placed in ice to terminate the reaction. Samples were centrifuged, and supernatants were transferred into 96-well plates for liquid chromatography with tandem mass spectrometry (LC-MS/MS) analysis to monitor the depletion of the test compound.
(§2) Data was calculated as percent remaining by assuming zero-minute time point peak area ratio (analyte/IS) as 100% and dividing remaining time point peak area ratios by zero-minute time point peak area ratio. Data were fitted to a first-order decay model to determine half-life. From a plot of log (ln) peak area against time, the slope of the line was determined. Subsequently, half-life (T1/2) and intrinsic clearance (CLint) were calculated using the equations below: Elimination rate constant (k)=(−slope) Half-life (T1/2) min=0.693/k Intrinsic Clearance (CLint) (mL/min/million cells)=(V×0.693)/T1/2 V=incubation volume mL/number of cells The in vitro T1/2 was converted to in vitro intrinsic clearance (CLint,hep) in units of mL/min/kg using the formula shown below:
(§3) [formula] The in vitro intrinsic clearance (CLint,hep) was scaled to in vivo hepatic clearance (CL,hep) using the following equation which was adapted from a well-stirred model.
(§4) [formula] where Q is the liver blood flow and fu is the fraction unbound (assumed to be unity in this case). All parameters used in the calculation are shown below (Table 4).
(§5) The extraction ratio (ER) was calculated by dividing the hepatic clearance of a compound to the liver blood flow. The data reported in Table 5 were obtained according to the human hepatocytes stability assay described above.

human hepatocytes = assay: Hepatocytes stability assay (human hepatocytes); conditions: human hepatocytes; scaled hepatic clearance divided by liver blood flow (well-stirred model, fu assumed unity)
Method: as §1, §2, §3, §4, §5

| SMILES | efflux ratio at 2 h, 3 μM (MDR1) | Papp A→B at 2 h, 3 μM (MDR1) [×10⁻⁶ cm/s] | hepatocyte CLint at 1 μM [1] [µL/min/1e6 cells] | Extraction Ratio (ER) (human hepatocytes) |
| --- | --- | --- | --- | --- |
| Cc1ccnc2c1[C@H]1CC[C@H](CC1)OCC1[C@@H](NS(=O)(=O)C3COC3)CCCN1C(=O)CO2 (stereo in doubt) [Compound 88] | 25 | 0.84 | 6.7 | 0.50 |
| O=S(=O)(CC1CCC1)N[C@H]1CCCN2CCOc3ccccc3[C@H]3CC[C@H](CC3)OCC12 (stereo in doubt) [Compound 55] | 31 | 0.23 | 69 | 0.91 |
| Cc1cccc2c1[C@H]1CC[C@H](CC1)OCC1[C@@H](NS(=O)(=O)C3CC3)CCN1C(=O)CO2 (stereo in doubt) [Compound 70] | 4.2 | 3.7 | 45 | 0.87 |
| Cc1ccc2c(c1C)[C@H]1CC[C@H](CC1)OCC1[C@@H](NS(=O)(=O)C(C)C)CCCN1C(=O)CO2 (stereo in doubt) [Compound 76] | 28 | 0.57 | 9.8 | 0.59 |
| O=C1COc2cccc(F)c2[C@H]2CC[C@H](CC2)OCC2[C@@H](NS(=O)(=O)C3CC3)CCCN12 (stereo in doubt) [Compound 74] | 41 | 0.62 | 15 | 0.69 |
| O=C1COc2ccccc2[C@H]2CC[C@H](CC2)OCC2[C@@H](NS(=O)(=O)CC3CCC3)CCCN12 (stereo in doubt) [Compound 43] | 10 | 0.96 | 55 | 0.89 |
| Cc1cccc2c1[C@H]1CC[C@H](CC1)OCC1[C@@H](NS(=O)(=O)C(C)C)CCN1C(=O)CO2 (stereo in doubt) [Compound 79] | 3.8 | 5.7 | 46 | 0.87 |
| Cc1ncnc2c1[C@H]1CC[C@H](CC1)OCC1[C@@H](NS(C)(=O)=O)CCN1C(=O)CO2 (stereo in doubt) [Compound 82] | 59 | 0.58 | < 1.9 | <0.22 |
| O=S(=O)(CC1CC1)N[C@H]1CCCN2CCOc3ccccc3[C@H]3CC[C@H](CC3)OCC12 (stereo in doubt) [Compound 59] | 5.4 | 1.67 | 62 | 0.90 |
| Cc1cccc2c1OCC(=O)N1CCC[C@H](NS(C)(=O)=O)C1CO[C@H]1CC[C@@H]2CC1 (stereo in doubt) [Compound 37] | > 100 | 0.23 | 24 | 0.78 |
| Cc1ncnc2c1[C@H]1CC[C@H](CC1)OCC1[C@@H](NS(=O)(=O)C(C)C)CCCN1C(=O)CO2 (stereo in doubt) [Compound 69] | > 100 | < 0.041 | 3.4 | 0.34 |
| Cc1ccc2c(c1)C1CCC(CC1)OC[C@H]1[C@@H](NS(=O)(=O)C(C)C)CCCN1C(=O)CO2 (stereo in doubt) [Compound 18] | 19 | 0.83 | 5.8 | 0.46 |
| CC(C)S(=O)(=O)N[C@H]1CCCN2CCOc3ccccc3[C@H]3CC[C@H](CC3)OCC12 (stereo in doubt) [Compound 52] | 2.4 | 3.9 | 59 | 0.90 |
| CS(=O)(=O)N[C@H]1CCCN2C(=O)COc3cc(C#N)ccc3[C@H]3CC[C@H](CC3)OCC12 (stereo in doubt) [Compound 47] | > 100 | 0.19 | 4.3 | 0.39 |
| Cc1ccc2c(c1C)[C@H]1CC[C@H](CC1)OCC1[C@@H](NS(C)(=O)=O)CCCN1C(=O)CO2 (stereo in doubt) [Compound 78] | 74 | 0.41 | 7.2 | 0.52 |
| CS(=O)(=O)N[C@H]1CCCN2C(=O)COc3ccc(C#N)cc3[C@H]3CC[C@H](CC3)OCC12 (stereo in doubt) [Compound 46] | 81 | 0.18 | 2.8 | 0.29 |
| O=C1COc2ncccc2C2CCC(CC2)OC[C@H]2[C@@H](NS(=O)(=O)C3CC3)CCCN12 (stereo in doubt) [Compound 14] | > 100 | 0.3 | 20 | 0.75 |
| O=S(=O)(N[C@H]1CCCN2CCOc3ccccc3[C@H]3CC[C@H](CC3)OCC12)C1CC1 (stereo in doubt) [Compound 51] | 1.1 | 7.8 | 42 | 0.86 |
| CC1(S(=O)(=O)N[C@H]2CCCN3CCOc4ccccc4[C@H]4CC[C@H](CC4)OCC23)CC1 (stereo in doubt) [Compound 58] | 7.5 | 1.4 | 55 | 0.89 |
| Cc1cnc2c(c1)[C@H]1CC[C@H](CC1)OCC1[C@@H](NS(=O)(=O)C(C)C)CCCN1C(=O)CO2 (stereo in doubt) [Compound 34] | 67 | 0.44 | 7.1 | 0.52 |
| CC(C)(C)S(=O)(=O)N[C@H]1CCCN2C(=O)COc3ccccc3[C@H]3CC[C@H](CC3)OCC12 (stereo in doubt) [Compound 44] | 7.8 | 2 | 46 | 0.87 |
| O=S(=O)(N[C@H]1CCCN2CCOc3ccccc3[C@H]3CC[C@H](CC3)OCC12)C1CCC1 (stereo in doubt) [Compound 57] | 6 | 1.7 | 65 | 0.91 |
| CC(C)S(=O)(=O)N[C@H]1CCCN2CCOc3ncccc3[C@H]3CC[C@H](CC3)OCC12 (stereo in doubt) [Compound 64] | 1.2 | 12 | 46 | 0.87 |
